Reference: ChEMBL document CHEMBL4265887 (Bioorg Med Chem Lett, 2018)
Values after ≈ are worked out from the molar mass of the structure shown. Active and inactive are the calls of the source. No cut-off for these calls is given here.

Key:
[1] = molecular target: Serine/threonine-protein kinase PAK 1 (Homo sapiens) (UniProt Q13153); test: Inhibition of PAK1 (unknown origin) at 10 uM
[2] = molecular target: Protein kinase C alpha type (Homo sapiens) (UniProt P17252); test: Inhibition of PKCalpha (unknown origin) at 10 uM
[3] = molecular target: Hepatocyte growth factor receptor (Homo sapiens) (UniProt P08581); test: Inhibition of c-MET (unknown origin) at 10 uM
Sequence of Hepatocyte growth factor receptor (Homo sapiens) (P08581 whole entry): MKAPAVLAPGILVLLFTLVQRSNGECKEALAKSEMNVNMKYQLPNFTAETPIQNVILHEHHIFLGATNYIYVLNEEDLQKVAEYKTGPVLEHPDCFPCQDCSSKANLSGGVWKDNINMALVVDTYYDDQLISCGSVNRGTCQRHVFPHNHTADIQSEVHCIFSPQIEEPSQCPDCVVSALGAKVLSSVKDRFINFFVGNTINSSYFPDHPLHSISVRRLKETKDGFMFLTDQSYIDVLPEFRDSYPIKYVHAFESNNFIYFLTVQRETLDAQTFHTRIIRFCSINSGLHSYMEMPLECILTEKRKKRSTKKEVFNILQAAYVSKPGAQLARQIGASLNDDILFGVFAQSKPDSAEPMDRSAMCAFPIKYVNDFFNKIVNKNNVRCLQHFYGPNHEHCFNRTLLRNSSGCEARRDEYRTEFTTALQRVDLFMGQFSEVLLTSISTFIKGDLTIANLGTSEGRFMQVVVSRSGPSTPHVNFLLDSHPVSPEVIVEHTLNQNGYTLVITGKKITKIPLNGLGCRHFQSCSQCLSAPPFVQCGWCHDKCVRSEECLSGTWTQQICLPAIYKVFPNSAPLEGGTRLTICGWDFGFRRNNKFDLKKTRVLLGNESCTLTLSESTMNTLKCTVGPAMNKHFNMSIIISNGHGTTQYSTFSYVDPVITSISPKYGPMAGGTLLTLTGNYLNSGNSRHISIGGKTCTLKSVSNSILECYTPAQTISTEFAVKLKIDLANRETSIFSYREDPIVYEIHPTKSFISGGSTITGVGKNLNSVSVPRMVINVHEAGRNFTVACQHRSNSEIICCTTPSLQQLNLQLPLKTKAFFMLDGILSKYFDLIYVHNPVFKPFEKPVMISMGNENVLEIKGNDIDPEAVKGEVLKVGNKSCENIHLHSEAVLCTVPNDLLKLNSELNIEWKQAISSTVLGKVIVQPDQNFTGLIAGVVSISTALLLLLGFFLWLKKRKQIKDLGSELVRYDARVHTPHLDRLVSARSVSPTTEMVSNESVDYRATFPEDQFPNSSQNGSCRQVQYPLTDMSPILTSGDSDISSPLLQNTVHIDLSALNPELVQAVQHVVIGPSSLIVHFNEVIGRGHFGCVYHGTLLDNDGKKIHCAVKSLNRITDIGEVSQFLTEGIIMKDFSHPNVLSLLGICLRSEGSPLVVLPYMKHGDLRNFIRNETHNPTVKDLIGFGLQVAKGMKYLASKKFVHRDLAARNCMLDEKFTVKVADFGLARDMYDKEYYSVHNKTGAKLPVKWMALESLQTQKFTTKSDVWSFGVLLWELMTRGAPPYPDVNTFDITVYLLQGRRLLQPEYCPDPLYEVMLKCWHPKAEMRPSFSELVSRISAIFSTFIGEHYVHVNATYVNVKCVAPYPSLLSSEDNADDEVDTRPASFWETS

[4] = system: HCT-116; test: Induction of apoptosis in human HCT116 cells at 100 nM after 72 hrs by Annexin V-FITC staining-based flow cytometric analysis; type: functional, cell-based
[5] = molecular target: Aurora kinase B (Homo sapiens, UniProt Q96GD4); test: Inhibition of recombinant Aurora B (unknown origin) using TAMRA-PKAtide as substrate after 1 hr by fluorescence polarization assay
[6] = system: HCT-116; test: Induction of apoptosis in human HCT116 cells at 1 uM after 72 hrs by Annexin V-FITC/propidium iodide staining-based flow cytometric analysis; type: functional, cell-based
[7] = molecular target: Tyrosine-protein kinase ABL1 (Homo sapiens) (UniProt P00519); test: Inhibition of ABL (unknown origin) at 10 uM
[8] = molecular target: Receptor tyrosine-protein kinase erbB-2 (Homo sapiens) (UniProt P04626); test: Inhibition of ErbB2 (unknown origin) at 10 uM
[9] = molecular target: Tyrosine-protein kinase JAK3 (Homo sapiens) (UniProt P52333); test: Inhibition of JAK3 (unknown origin) at 10 uM
Sequence of Tyrosine-protein kinase JAK3 (Homo sapiens) (P52333 whole entry): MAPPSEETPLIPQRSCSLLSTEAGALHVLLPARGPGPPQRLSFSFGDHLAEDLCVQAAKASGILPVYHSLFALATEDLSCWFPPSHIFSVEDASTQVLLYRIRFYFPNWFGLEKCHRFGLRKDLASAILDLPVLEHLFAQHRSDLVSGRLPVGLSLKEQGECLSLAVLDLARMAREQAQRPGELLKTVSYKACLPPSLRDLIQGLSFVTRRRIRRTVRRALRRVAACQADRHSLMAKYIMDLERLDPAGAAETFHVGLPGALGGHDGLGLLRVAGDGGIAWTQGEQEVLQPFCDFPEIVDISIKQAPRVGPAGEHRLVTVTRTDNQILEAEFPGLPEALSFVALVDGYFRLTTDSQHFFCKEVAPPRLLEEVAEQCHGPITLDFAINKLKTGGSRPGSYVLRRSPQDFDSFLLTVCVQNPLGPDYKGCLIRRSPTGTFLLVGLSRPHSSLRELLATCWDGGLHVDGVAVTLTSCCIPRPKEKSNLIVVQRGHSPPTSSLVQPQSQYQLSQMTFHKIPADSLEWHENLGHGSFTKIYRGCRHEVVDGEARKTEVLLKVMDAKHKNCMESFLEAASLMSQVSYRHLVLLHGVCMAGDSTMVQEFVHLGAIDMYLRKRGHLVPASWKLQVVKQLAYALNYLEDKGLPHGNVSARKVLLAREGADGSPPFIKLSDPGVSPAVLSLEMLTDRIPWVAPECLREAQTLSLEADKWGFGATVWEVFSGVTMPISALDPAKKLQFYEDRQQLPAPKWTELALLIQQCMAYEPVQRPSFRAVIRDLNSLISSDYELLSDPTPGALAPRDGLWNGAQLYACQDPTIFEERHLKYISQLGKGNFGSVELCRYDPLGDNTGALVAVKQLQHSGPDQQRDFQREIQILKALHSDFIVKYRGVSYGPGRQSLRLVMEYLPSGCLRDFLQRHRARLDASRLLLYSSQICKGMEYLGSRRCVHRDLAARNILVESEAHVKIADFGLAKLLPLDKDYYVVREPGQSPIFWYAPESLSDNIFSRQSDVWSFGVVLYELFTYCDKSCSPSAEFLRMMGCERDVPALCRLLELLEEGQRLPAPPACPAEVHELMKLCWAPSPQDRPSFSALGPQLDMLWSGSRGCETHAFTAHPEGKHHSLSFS

[10] = Solubility of the compound in phosphate buffer of pH 7.4 after 24 hrs by RP-HPLC analysis; type: physicochemical; conditions: phosphate buffer, pH 7.4
[11] = molecular target: Tyrosine-protein kinase SYK (Homo sapiens) (UniProt P43405); test: Inhibition of SYK (unknown origin) at 10 uM
[12] = molecular target: Proto-oncogene tyrosine-protein kinase receptor Ret (Homo sapiens) (UniProt P07949); test: Inhibition of RET (unknown origin) at 10 uM
[13] = molecular target: Mitogen-activated protein kinase 8 (Homo sapiens) (UniProt P45983); test: Inhibition of JNK1 (unknown origin) at 10 uM
Sequence of Mitogen-activated protein kinase 8 (Homo sapiens) (P45983 whole entry, the tested form may be a part): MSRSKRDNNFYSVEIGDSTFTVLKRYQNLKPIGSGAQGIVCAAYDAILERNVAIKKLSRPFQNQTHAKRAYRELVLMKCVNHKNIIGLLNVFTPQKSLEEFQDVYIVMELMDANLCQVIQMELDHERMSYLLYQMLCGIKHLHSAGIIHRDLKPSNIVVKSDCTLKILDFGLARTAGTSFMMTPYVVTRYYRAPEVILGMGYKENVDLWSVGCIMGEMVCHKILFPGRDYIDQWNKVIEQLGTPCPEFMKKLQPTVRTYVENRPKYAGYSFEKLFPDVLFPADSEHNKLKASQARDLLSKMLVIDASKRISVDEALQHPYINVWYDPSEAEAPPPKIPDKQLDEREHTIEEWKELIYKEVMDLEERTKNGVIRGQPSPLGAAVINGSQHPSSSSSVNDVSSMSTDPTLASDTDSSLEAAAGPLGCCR

[14] = molecular target: Epithelial discoidin domain-containing receptor 1 (Homo sapiens) (UniProt Q08345); test: Inhibition of DDR1 (unknown origin) at 10 uM
[15] = Solubility of the compound in phosphate buffer of pH 2 after 24 hrs by RP-HPLC analysis; type: physicochemical
[16] = system: HCT-116; test: Synergistic cytotoxicity against human HCT116 cells assessed as reduction in cell viability by measuring combination index at 1:1 compound to GSK2126458 ratio after 48 hrs by MTT assay; type: functional
[17] = molecular target: Serine/threonine-protein kinase PAK 4 (Homo sapiens) (UniProt O96013); test: Inhibition of PAK4 (unknown origin) at 10 uM
Sequence of Serine/threonine-protein kinase PAK 4 (Homo sapiens) (O96013 whole entry, looked up): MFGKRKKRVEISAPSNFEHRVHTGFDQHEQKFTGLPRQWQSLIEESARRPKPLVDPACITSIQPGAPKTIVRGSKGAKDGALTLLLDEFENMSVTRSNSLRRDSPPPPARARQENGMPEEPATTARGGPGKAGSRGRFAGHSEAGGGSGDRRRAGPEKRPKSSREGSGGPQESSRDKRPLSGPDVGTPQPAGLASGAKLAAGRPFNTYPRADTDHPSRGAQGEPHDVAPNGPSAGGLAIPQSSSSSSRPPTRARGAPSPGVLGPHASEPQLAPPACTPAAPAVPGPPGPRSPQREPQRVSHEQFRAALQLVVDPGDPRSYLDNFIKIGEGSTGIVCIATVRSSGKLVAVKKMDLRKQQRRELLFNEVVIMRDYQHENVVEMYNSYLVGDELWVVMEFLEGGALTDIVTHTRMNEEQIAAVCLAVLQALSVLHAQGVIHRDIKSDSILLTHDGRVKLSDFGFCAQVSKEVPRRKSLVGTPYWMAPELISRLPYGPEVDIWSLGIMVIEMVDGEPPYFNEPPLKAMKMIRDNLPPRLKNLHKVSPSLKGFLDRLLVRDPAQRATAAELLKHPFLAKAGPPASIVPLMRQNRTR

[18] = molecular target: Tyrosine-protein kinase receptor UFO (Homo sapiens) (UniProt P30530); test: Inhibition of AXL (unknown origin) at 10 uM
[19] = system: HT-29; test: Synergistic cytotoxicity against human HT-29 cells assessed as reduction in cell viability by measuring combination index at 1:1 compound to lonafarnib ratio after 48 hrs by MTT assay; type: functional
[20] = system: HT-29; test: Synergistic cytotoxicity against human HT-29 cells assessed as reduction in cell viability by measuring combination index at 1:1 compound to crizotinib ratio after 48 hrs by MTT assay; type: functional
[21] = system: HCT-116; test: Inhibition of cytokinesis in human HCT116 cells at 1 uM after 24 hrs by propidium iodide/RNase staining-based flow cytometric analysis; type: functional, cell-based

Sequence of Serine/threonine-protein kinase PAK 1 (Homo sapiens) (Q13153 whole entry): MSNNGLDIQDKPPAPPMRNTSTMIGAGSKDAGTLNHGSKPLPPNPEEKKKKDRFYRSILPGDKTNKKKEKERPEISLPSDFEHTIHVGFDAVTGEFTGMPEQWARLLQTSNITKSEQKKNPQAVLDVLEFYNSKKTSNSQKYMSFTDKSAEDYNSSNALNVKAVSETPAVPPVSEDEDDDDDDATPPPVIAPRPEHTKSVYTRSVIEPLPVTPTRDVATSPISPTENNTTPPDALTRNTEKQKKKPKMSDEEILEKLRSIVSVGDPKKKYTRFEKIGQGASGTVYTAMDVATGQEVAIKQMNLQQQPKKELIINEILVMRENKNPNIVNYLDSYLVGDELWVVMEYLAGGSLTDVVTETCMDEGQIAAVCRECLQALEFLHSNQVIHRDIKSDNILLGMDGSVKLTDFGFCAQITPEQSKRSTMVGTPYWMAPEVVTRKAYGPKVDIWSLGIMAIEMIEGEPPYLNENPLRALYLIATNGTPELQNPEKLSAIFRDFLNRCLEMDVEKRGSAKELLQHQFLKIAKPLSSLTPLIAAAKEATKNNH

- inhibition [1]: 26.7%
- inhibition [2]: 21.4%
- inhibition [3]: 47.4%
- IC50 [5]: 29 nM
- inhibition [7]: 100%
- inhibition [8]: 35.9%
- inhibition [9]: 99.6%
- solubility at 24 h [10]: 1.9 µM (≈ 0.86 µg/mL)
- inhibition [11]: 16.6%
- inhibition [12]: 98.4%
- inhibition [13]: 12.2%
- inhibition [14]: 84.4%
- solubility at 24 h [15]: 1.8 µM (≈ 0.815 µg/mL)
- inhibition [17]: 95.7%
- inhibition [18]: 112%
SMILES: CNC(=O)Nc1sc2c(C(C)C)cc(NS(=O)(=O)c3cccs3)cc2c1C(N)=O
- Activity [4]: Active
- Activity [6]: Active
- CI [16]: 1.042
- CI [19]: 0.198
- CI [20]: 0.102
- Cytokinesis inhibition (active/inactive call) [21]: Active
